Key:
[1] = Cytotoxicity against human CEM-DNR-bulk cells incubated for 72 hrs by MTS assay; assay type: functional, cell-based
HCT-116 [2] = assay: Cytotoxicity against p53 knockout human HCT116 cells incubated for 72 hrs by MTS assay; assay type: functional, cell-based; conditions: HCT-116, 72 h
CCRF-CEM = assay: Cytotoxicity against human CCRF-CEM cells incubated for 72 hrs by MTS assay; assay type: functional, cell-based
BJ = assay: Cytotoxicity against human BJ cells incubated for 72 hrs by MTS assay; assay type: cell-based
HCT-116 [3] = assay: Cytotoxicity against human HCT116 cells incubated for 72 hrs by MTS assay; assay type: functional, cell-based; conditions: HCT-116, 72 h
MRC5 = assay: Cytotoxicity against human MRC5 cells incubated for 72 hrs by MTS assay; assay type: cell-based; conditions: MRC5, 72 h
K562 = assay: Cytotoxicity against human K562 cells incubated for 72 hrs by MTS assay; assay type: functional, cell-based; conditions: K562, 72 h
A549 = assay: Cytotoxicity against human A549 cells incubated for 72 hrs by MTS assay; assay type: functional, cell-based; conditions: A549, 72 h
[4] = Cytotoxicity against human K562-TAX cells incubated for 72 hrs by MTS assay; assay type: functional, cell-based
U2OS = assay: Cytotoxicity against human U2OS cells incubated for 72 hrs by MTS assay; assay type: functional, cell-based

Row | Compound | IC50 [1] [µM] | IC50 (HCT-116 [2]) [µM] | IC50 (CCRF-CEM) [µM] | IC50 (BJ) [µM] | IC50 (HCT-116 [3]) [µM] | IC50 (MRC5) [µM] | IC50 (K562) [µM] | IC50 (A549) [µM] | IC50 [4] [µM] | IC50 (U2OS) [µM]
1 | C=C(C)[C@@H]1CC[C@]2(C(=O)O)CC[C@]3(C)[C@H](CC[C@@H]4[C@@]5(C)Cc6sc(N7CCOCC7)nc6C(C)(C)[C@@H]5CC[C@]43C)[C@@H]12 | > 50 | > 50 | 7.2 | > 50 | > 50 | > 50 | 11.2 | > 50 | > 50 | > 50
2 | CC(C)[C@@H]1CC[C@]2(C(=O)O)CC[C@]3(C)[C@H](CC[C@@H]4[C@@]5(C)CCC(=O)C(C)(C)[C@@H]5CC[C@]43C)[C@@H]12 [DIHYDROBETULONIC ACID] | 48.3 | 36.4 | 6.2 | > 50 | 33.5 | > 50 | 11.6 | 22.2 | 11.1 | 27.5
3 | CCN(CC)c1nc2c(s1)C[C@]1(C)[C@H]3CC[C@@H]4[C@H]5[C@H](C(C)C)CC[C@]5(C(=O)O)CC[C@@]4(C)[C@]3(C)CC[C@H]1C2(C)C | > 50 | > 50 | 19.7 | > 50 | > 50 | > 50 | 16.3 | > 50 | > 50 | 45.8
4 | C[C@H]1[C@H](C)CC[C@]2(C(=O)O)CC[C@]3(C)C(=CC[C@@H]4[C@@]5(C)Cc6sc(NC7CCCCC7)nc6C(C)(C)[C@@H]5CC[C@]43C)[C@H]12 | > 50 | > 50 | 19.4 | > 50 | > 50 | > 50 | > 50 | > 50 | > 50 | > 50
5 | C[C@H]1[C@H](C)CC[C@]2(C(=O)O)CC[C@]3(C)C(=CC[C@@H]4[C@@]5(C)Cc6sc(N7CCCC7)nc6C(C)(C)[C@@H]5CC[C@]43C)[C@H]12 | 39 | > 50 | 10.7 | > 50 | 39 | > 50 | > 50 | > 50 | 37.5 | > 50
6 | C[C@H]1[C@H](C)CC[C@]2(C(=O)O)CC[C@]3(C)C(=CC[C@@H]4[C@@]5(C)Cc6sc(N7CCOCC7)nc6C(C)(C)[C@@H]5CC[C@]43C)[C@H]12 | 23.8 | 37.9 | 8.5 | > 50 | 23.6 | > 50 | 8.6 | 28.8 | 29.7 | 29.1
7 | C=C(C)[C@@H]1CC[C@]2(C(=O)O)CC[C@]3(C)[C@H](CC[C@@H]4[C@@]5(C)Cc6sc(N7CCCCC7)nc6C(C)(C)[C@@H]5CC[C@]43C)[C@@H]12 | > 50 | > 50 | 9.3 | > 50 | > 50 | 50 | 35.9 | > 50 | > 50 | > 50
8 | C[C@H]1[C@H](C)CC[C@]2(C(=O)O)CC[C@]3(C)C(=CC[C@@H]4[C@@]5(C)Cc6sc(N7CCN(C)CC7)nc6C(C)(C)[C@@H]5CC[C@]43C)[C@H]12 | > 50 | > 50 | 47.6 | > 50 | > 50 | > 50 | > 50 | > 50 | > 50 | > 50
9 | C=C(C)[C@@H]1CC[C@]2(C(=O)O)CC[C@]3(C)[C@H](CC[C@@H]4[C@@]5(C)Cc6sc(NCc7ccccc7)nc6C(C)(C)[C@@H]5CC[C@]43C)[C@@H]12 | > 50 | > 50 | 3.7 | > 50 | > 50 | > 50 | > 50 | > 50 | > 50 | 47.5
10 | C[C@H]1[C@H](C)CC[C@]2(C(=O)O)CC[C@]3(C)C(=CC[C@@H]4[C@@]5(C)CCC(=O)C(C)(C)[C@@H]5CC[C@]43C)[C@H]12 [URSONIC ACID] | 34 | > 50 | 10.4 | > 50 | 49.7 | > 50 | > 50 | > 50 | 35.5 | > 50
11 | CCN(CC)c1nc2c(s1)C[C@]1(C)[C@H]3CC=C4[C@@H]5[C@@H](C)[C@H](C)CC[C@]5(C(=O)O)CC[C@@]4(C)[C@]3(C)CC[C@H]1C2(C)C | > 50 | > 50 | 26.6 | > 50 | 41.3 | > 50 | > 50 | > 50 | > 50 | > 50
12 | C=C(C)[C@@H]1CC[C@]2(C(=O)O)CC[C@]3(C)[C@H](CC[C@@H]4[C@@]5(C)Cc6sc(N(CC)CC)nc6C(C)(C)[C@@H]5CC[C@]43C)[C@@H]12 | > 50 | 31.6 | 8.5 | > 50 | > 50 | 23.3 | 29.5 | > 50 | 46.8 | > 50
13 | C[C@H]1[C@H](C)CC[C@]2(C(=O)O)CC[C@]3(C)C(=CC[C@@H]4[C@@]5(C)Cc6sc(N7CCCCC7)nc6C(C)(C)[C@@H]5CC[C@]43C)[C@H]12 | > 50 | > 50 | 22 | > 50 | > 50 | > 50 | > 50 | > 50 | > 50 | > 50
14 | CC1(C)CC[C@]2(C(=O)O)CC[C@]3(C)C(=CC[C@@H]4[C@@]5(C)CCC(=O)C(C)(C)[C@@H]5CC[C@]43C)[C@@H]2C1 [OLEANONIC ACID] | 17.4 | > 50 | 15.1 | > 50 | 45.1 | > 50 | > 50 | 49.5 | 21.5 | 48.5
15 | C=C(C)[C@@H]1CC[C@]2(C(=O)O)CC[C@]3(C)[C@H](CC[C@@H]4[C@@]5(C)CCC(=O)C(C)(C)[C@@H]5CC[C@]43C)[C@@H]12 [BETUNOLIC ACID] | 11.2 | 49.4 | 8.4 | 39.5 | 38.1 | 29.5 | 13.6 | 40 | 14.9 | 38
16 | C[C@H]1[C@H](C)CC[C@]2(C(=O)O)CC[C@]3(C)C(=CC[C@@H]4[C@@]5(C)Cc6sc(N)nc6C(C)(C)[C@@H]5CC[C@]43C)[C@H]12 | 29.5 | > 50 | 19 | > 50 | 43 | > 50 | > 50 | > 50 | 33.1 | 49.6
17 | C=C(C)[C@@H]1CC[C@]2(C(=O)O)CC[C@]3(C)[C@H](CC[C@@H]4[C@@]5(C)CC(Br)C(=O)C(C)(C)[C@@H]5CC[C@]43C)[C@@H]12 (stereo not given in full) | 17.9 | 32.7 | 3 | 33.5 | 31.1 | 20.4 | 35.5 | 24 | 23.5 | 23.4
18 | C=C(C)[C@@H]1CC[C@]2(C(=O)O)CC[C@]3(C)[C@H](CC[C@@H]4[C@@]5(C)Cc6sc(N7CCCC7)nc6C(C)(C)[C@@H]5CC[C@]43C)[C@@H]12 | > 50 | > 50 | 7 | > 50 | > 50 | > 50 | > 50 | > 50 | 22.9 | > 50
19 | CC(C)[C@@H]1CC[C@]2(C(=O)O)CC[C@]3(C)[C@H](CC[C@@H]4[C@@]5(C)CC(Br)C(=O)C(C)(C)[C@@H]5CC[C@]43C)[C@@H]12 (stereo not given in full) | 15.6 | 5.2 | 3.1 | 21.8 | 1 | 8 | 0.7 | 15.2 | 5.1 | 10

From ChEMBL document CHEMBL4312011, “Synthesis and biological evaluation of triterpenoid thiazoles derived from betulonic acid, dihydrobetulonic acid, and ursonic acid” (Eur J Med Chem, 2020)
